Results taken from paper PMC12090178, “Exploring the Potential of Homologous Recombination Protein PALB2 in Synthetic Lethal Combinations” (ACS Chemical Biology, 2025).
Read-outs that look alike come from different tables or passages of the source. Where a SMILES comes first, the peptide text is derived from it. Where no end group is shown, it is not given here. The star is where a group is joined. Azidoacetyl = [N-]=[N+]=NCC(=O)*; Cbz = O=C(OCc1ccccc1)*

Assays:
[1] = molecular target: T1, PALB2C (Homo sapiens, UniProt Q86YC2); assay: Displacement polarization assay (competition with FLU-GG-[…]); conditions: dark peptide 10 μM, probe FLU-GG-[…] 10 nM, 20 min RT, 25 °C, competitive binding fit
T1 construct: C terminal part of Palb2 (aa 835-1186); His tag (C); 3C protease site; host or cells: Hi5 insect cells (virus produced and amplified in Sf9)
T1 sequence (Q86YC2 835-1186): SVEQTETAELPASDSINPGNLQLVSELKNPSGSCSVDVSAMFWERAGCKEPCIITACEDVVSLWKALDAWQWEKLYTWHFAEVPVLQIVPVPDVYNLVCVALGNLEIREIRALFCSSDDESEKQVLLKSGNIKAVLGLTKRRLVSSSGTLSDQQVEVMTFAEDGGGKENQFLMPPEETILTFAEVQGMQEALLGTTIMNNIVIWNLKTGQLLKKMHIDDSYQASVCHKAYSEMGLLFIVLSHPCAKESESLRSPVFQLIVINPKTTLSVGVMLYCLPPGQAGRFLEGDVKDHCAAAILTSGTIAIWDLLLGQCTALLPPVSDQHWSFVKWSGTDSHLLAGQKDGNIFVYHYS
Protocol: To the mixture above, the dark peptide was added at a final concentration of 10 μM (1000 eq. excess). After incubation in the dark at RT for 20 min, fluorescence polarization was measured (ex: 485:20, em: 535:25, 25 °C).KD was obtained by fitting the signal to a competitive binding model described previously[52] by using the python lmfit package with the nonlinear least-squares method.
9.3 Displacement polarization assay
The displacement assay was set up similarly to the direct polarization assay. In addition to the
DMSO) was added to a final concentration of 20 μM.
μM and 10 nM for the peptide and the probe, respectively.
The resulting binding curve was fitted using the python lmfit package3 to a linearly transformed competitive KD binding model described previously4 using the non- linear least
𝑚𝑚 = 𝐾𝐾D, Probe + 𝐾𝐾D, Pep + 𝑐𝑐Probe + 𝑐𝑐Pep − 𝑐𝑐Prot
𝑛𝑛 = 𝐾𝐾D, Pep ⋅ (𝑐𝑐Probe − 𝑐𝑐Prot ) + 𝐾𝐾D, Probe ⋅ ?𝑐𝑐Pep − 𝑐𝑐Prot ? + 𝐾𝐾D, Pep ⋅ 𝐾𝐾D, Probe 𝑜𝑜 = −𝐾𝐾D, Pep ⋅ 𝐾𝐾D, Pro be ⋅ 𝑐𝑐Prot
𝜃𝜃 = cos −1 ?−2𝑚𝑚 3 + 9𝑚𝑚𝑛𝑛 − 27𝑜𝑜 ?
𝑟𝑟 = 2 ⋅ ?𝑚𝑚 2 − 3𝑛𝑛 ⋅ cos 𝜃𝜃3 − 𝑚𝑚
𝑓𝑓 = 𝑐𝑐Probe ⋅ 𝑟𝑟3 ⋅ 𝐾𝐾D, Probe + 𝑟𝑟

[2] = system: PALB2-IKZF3d; assay: IMiD-induced degradation of PALB2-IKZF3d (Western blot); type: cell-based; conditions: for rescue of pomalidomide-induced PALB2-IKZF3d degradation: 1 μM inhibitor 6 h, then 10 μM pomalidomide 18 h
Protocol: 5.1 Degradation of PALB2 and UPP rescue assays
To show PALB2 deegradation, cells were treated with pomalidomide at the indicated concentrations for 24 h. The cells were subsequently lysed and prepared for gel electrophoresis and western blotting.
To show UPP rescue, MG132 and MLN4924 were used to inhibit the ubiquitination-proteasome degradation pathway. The cells were first treated with 1 μM MG132 or 1 μM MLN4924. After 6 h, pomalidomide was added to a final concentration of 10 μM. After 18 h, the cells were collected and lysed.
To show PALB2 recovery, the cells were first treated with 10 μM pomalidomide or 10 μM iberdomide for 24 h. After that, the culture medium was removed, the cells were washed three times with fresh culture medium and then cultured with culture medium without IMiDs.
The cells were then collected an d l yse d . […]
Figure S7. A). Degradation of endogenous PALB2.
B). PALB2 de gra dation rescue expe ri ment. The cells in the degradation rescue group w ere first t reated with 1 μ M MG132 and 1 μ M M LN49 24 for 6 hou rs and then t reated with 10 μ M pomalidomide for 1 8 hours. Cell samples were collected for WB analysis. The asterisk represents a nonspecific band of PALB 2 with t his antibody. […]

[3] = molecular target: T2, PALB2 C-terminal domain (PALB2C) (Homo sapiens, UniProt Q86YC2); assay: Direct fluorescence polarization of labelled BRCA2 peptides; type: binding; conditions: for Kd: direct FP, PALB2C source Hi5 insect cells, labelled peptide 10 nM, PALB2C serially diluted from 4.4 μM, 20 mM HEPES, 100 mM NaCl, 1 mM DTT, 1 mM EDTA, 0.01% IGEPAL CA-630, 20 min RT, read at 25 °C, N = 3-20
T2 construct: C terminal part of Palb2 (aa 835-1186); His tag (C); 3C protease site; host or cells: Hi5 insect cells (virus produced and amplified in Sf9)
T2 sequence (Q86YC2 835-1186): T1 sequence (Q86YC2 835-1186)
Protocol: FLU-GG-[…] (Peptide Protein Research Ltd., Fareham, UK) was dissolved in DMSO at 1 μM. PALB2C (22 μM, in 20 mM HEPES, 100 mM NaCl, 1 mM DTT, 1 mM EDTA) was diluted to a final concentration of 4.4 μM (same buffer supplemented with 0.01% (v/v) IGEPAL CA-630). The protein was serially diluted and fluorescent peptide was added to a final concentration of 10 nM. After incubation in the dark at RT for 20 min, fluorescence polarization was measured (ex: 485:20, em: 535:25, 25 °C). KD was obtained by fitting the signal to a binding model using the python lmfit package with the nonlinear least-squares method.[51]
9 Fluorescent polarization assay
9.1.1 Insect cell expression
PALB2-C was synthesized by the EPFL protein production facility0F1. In short; the virus was produced and amplified in Sf9 cells. C-terminal His-Tagged 3C-PALB2C was grown in 5 L o f Hi5 cells and harvested after 3 days. Pellet was frozen, defrosted and resuspended in 200 mL of wash buffer, supplemented to 5 % glycerol (v/v), 50 μL benzonase, and 2 protease inhibitor tablets. The mixture was clarified with a French press for a total of 4 cycles and centrifu g e d a t 32 kcfg for 1 h. The supernatant was decanted, supplemented with imidazole to a final concentration of 25 mM and added to 5 mL of Ni-NTA bead s. The b ead s were in cub ated with […]
The beads were washed with 40 column volumes (CV) with wash buffer (500 mM NaCl, 20 mM HEPES, pH 7.5), 10 CV with wash buffer and 50 mM imid az o le . The protein was eluted with 6 CV of elution buffer (500 mM NaCl, 20 mM HEPES, 300 mM imidazole, pH 7.5) to a total volume of 38 mL. The elute was concentrated to 1 mL and injected onto a pre-equilibrated Superdex 200 10/300GL column (250 mM NaCl, 10 mM HEPES, 5 mM DTT, 1 mM EDTA, pH […]
A total volume of 950 μL PALBC was received at a concentration of 1 mg/mL (equals 22 μM) in the superdex buffer. This corresponds to a yield of 0.19 mg/L of Hi5 cells. […]
Concentration was measured on a NanoDrop 2000. The concentration was determined to be […]

[4] = system: HEK293 PALB2 IKZF3d/IKZF3d knock-in cells; assay: Cell viability assay (WST-1); type: cell-based; conditions: homozygous KI cells pretreated with 10 μM Pom, then DNA damaging drug, 5 days cotreatment, WST1
[5] = alanine scan of BRCA2 21-35, N = 1-4, read-out: KD (alanine scan)
[6] = truncated BRCA2 peptides, PALB2C source Hi5 (Figure 2B), N = 1-5, read-out: KD (other peptides)

Molecule: H-KADLGPISLAWFEEL-NH2 [Peptide P36]
- Kd [1, 5]: 4 µM

Molecule: NS(=O)(=O)OC[C@@H]1C[C@@H](n2ccc3c(N[C@H]4CCc5ccccc54)ncnc32)C[C@@H]1O [MLN4924]
- rescue of pomalidomide-induced PALB2-IKZF3d degradation [2]: prevented the pomalidomide-induced degradation of PALB2-IKZF 3d

Molecule: H-KADLGPISLNWFAEL-NH2 [Peptide P27]
- Kd [1, 5]: 5.1 µM

Molecule: H-GPISLNWFEEL-NH2 [Peptide P7]
- Kd [1, 6]: 82.2 µM

Molecule: H-DLGPISLNWFEEL-NH2 [Peptide P8]
- Kd [1, 6]: 7.9 µM

Molecule: FLU-GG-KADLGPISLNWFEELSSEA [FAM-GG-BRCA(21-39), fluorescein-labelled BRCA2(21-39) peptide, Peptide Protein Research Ltd; FP probe]
- Kd [3]: 0.63 µM

Molecule: H-GPISLNWFE-NH2 [Peptide P12]
- Kd [1, 6]: 17.9 µM

Molecule: CC[C@@]1(O)C(=O)OCc2c1cc1n(c2=O)Cc2cc3ccccc3nc2-1 [CPT, camptothecin]
- synergistic toxicity with PALB2 depletion [4]: noticeable synergistic toxicity

Molecule: H-KADLGPIALNWFEEL-NH2 [Peptide P34]
- Kd [1, 5]: 4.9 µM

Molecule: O=C1CC[C@H](N2Cc3c(OCc4ccc(CN5CCOCC5)cc4)cccc3C2=O)C(=O)N1 [Iber, iberdomide]
- recovery of PALB2 levels after wash out ([2]; 10 μM IMiD for 24 h, then medium removed and cells washed, knock-in cells): PALB2 levels recover after 24 h
- degradation of PALB2 in IKZF3d knock-in cells ([2]; homozygous IKZF3d knock-in HEK293 cells, 24 h treatment): degradation could also be induced

Molecule: CC(C)C[C@@H](C=O)NC(=O)[C@H](CC(C)C)NC(=O)[C@H](CC(C)C)NC(=O)OCc1ccccc1 [MG132] (Cbz-Leu-Leu-Leu-aldehyde)
- rescue of pomalidomide-induced PALB2-IKZF3d degradation [2]: prevented the pomalidomide-induced degradation of PALB2-IKZF 3d

Molecule: Cy5-DBCO-GG-BRCA(21-39): Cy5-modified peptide: P38 modified with 2-azidoacetic acid and Cy5-DBCO ({Cy5‑DBCO-Azidoacetyl}-GGKADLGPISLNWFEELSSEA; UniProt P51587 21-39, looked up, fragment)
- Kd [3]: 0.064 µM

Molecule: H-KADLGPASLNWFEEL-NH2 [Peptide P33]
- Kd [1, 5]: 5.3 µM

Molecule: H-KADLGPISLNWAEEL-NH2 [Peptide P26]
- Kd [1, 5]: 10.1 µM

Molecule: H-KADLGAISLNWFEEL-NH2 [Peptide P32]
- Kd [1, 5]: 3.6 µM

Molecule: H-KADLGPISLNWFEEL-NH2 [Peptide P9]
- Kd [1, 6]: 5 µM

Molecule: H-KAALGPISLNWFEEL-NH2 [Peptide P29]
- Kd [1, 5]: 4.6 µM

Molecule: H-KADLGPISLNWFEAL-NH2 [Peptide P28, H-KADLGPISLNWFEAL-NH2]
- Kd [1, 5]: 7 µM

Molecule: H-KADLGPISANWFEEL-NH2 [Peptide P35]
- Kd [1, 5]: 6.7 µM

Molecule: H-KADLGPISLNWFE-NH2 [Peptide P14]
- Kd [1, 6]: 25.2 µM

Molecule: O=C(c1cc(Cc2n[nH]c(=O)c3ccccc23)ccc1F)N1CCN(C(=O)C2CC2)CC1 [olaparib]
- synergistic toxicity with PALB2 depletion [4]: noticeable synergistic toxicity

Molecule: CC[C@H](C)[C@H](NC(=O)[C@H](CCC(=O)O)NC(=O)[C@H](Cc1ccccc1)NC(=O)[C@H](Cc1ccccc1)NC(=O)[C@@H](NC(=O)CNC(=O)CNC(=O)c1ccc2c(c1)C(=O)OC21c2ccc(O)cc2Oc2cc(O)ccc21)[C@@H](C)O)C(=O)N[C@@H](Cc1ccccc1)C(=O)N[C@@H](CCCCN)C(=O)N[C@H](C(=O)N[C@@H](CCCNC(=N)N)C(=O)N[C@@H](CS)C(=O)N[C@@H](CC(N)=O)C(=O)N[C@@H](CCCCN)C(=O)N[C@@H](C)C(=O)N[C@@H](CC(=O)O)C(=O)N[C@@H](CC(C)C)C(=O)NCC(=O)N1CCC[C@H]1C(=O)N[C@H](C(=O)N[C@@H](CO)C(=O)N[C@@H](CC(C)C)C(=O)N[C@@H](CC(N)=O)C(=O)N[C@@H](Cc1c[nH]c2ccccc12)C(=O)N[C@@H](Cc1ccccc1)C(=O)N[C@@H](CCC(=O)O)C(=O)N[C@@H](CCC(=O)O)C(=O)N[C@@H](CC(C)C)C(=O)N[C@@H](CO)C(=O)N[C@@H](CO)C(=O)N[C@@H](CCC(=O)O)C(=O)N[C@@H](C)C(N)=O)[C@@H](C)CC)[C@@H](C)O [FAM-GG-BRCA(10-39)] (HELM PEPTIDE1{[O=C1OC2(c3ccc(O)cc3Oc3cc(O)ccc32)c2ccc(C(=O)[*:2])cc21].G.G.T.F.F.E.I.F.K.T.R.C.N.K.A.D.L.G.P.I.S.L.N.W.F.E.E.L.S.S.E.A.[am]}$$$$V2.0; N-terminus and C-terminus assumed)
- gain in binding affinity from residues 12-21 ([3]; FAM-GG-BRCA(10-39) compared with FAM-GG-BRCA(21-39)): 6–10 fold

Molecule: H-KADLGPISLNAFEEL-NH2 [Peptide P25]
- Kd [1, 5]: 5.5 µM
